Key:
BT-20 = experiment: 3D spheroid assay BT-20; format: cell-based; conditions: Homo sapiens, 96 h; BT-20, 4 days treatment; read-out: IC50 3D spheroid cell viability
Description: (§1) Breast cancer cell lines were cultured in medium with or without 2% Matrigel (Corning, NY, USA) for 3 days in each 96-well ultra-low attachment round plate to form a single spheroid at a density of 3 × 10^3 cells/well. SJP1602 was dissolved in DMSO and treated for 4 days at concentrations ranging from 200 nM to 20 μM. Cell viability was quantified according to the manufacturer’s instructions using a CellTiter-Glo 3D cell viability assay (Promega, Madison, WI, USA). Luminescence was measured using the Tecan Spark 10M.

Hs578T = experiment: 3D spheroid assay Hs578T; format: cell-based; conditions: Homo sapiens, Hs-578T, 96 h, 4 days treatment, read-out: IC50 3D spheroid cell viability
Description: as §1

CDK2/cyclinA(h) = target: T1, CDK2/cyclinA(h) (Homo sapiens, UniProt P24941); experiment: Eurofins kinase profiling; format: biochemical; conditions: read-out: residual kinase activity CDK2/cyclinA(h)
T1 construct: purchased Eurofins KinaseProfiler
Summary of the method: (§2)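 Each kinase is incubated with compound (1 µM). Activity is then determined radiometrically from transfer of labeled phosphate.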

ZIPK(h) = target: T2, ZIPK(h) (Homo sapiens, UniProt O43293); experiment: Eurofins kinase profiling; format: biochemical; conditions: read-out: residual kinase activity ZIPK(h)
T2 construct: purchased Eurofins KinaseProfiler
Summary of the method: as §2

ATR/ATRIP(h) = target: T3, ATR/ATRIP(h) (Homo sapiens, UniProt Q13535); experiment: Eurofins kinase profiling; format: biochemical; conditions: read-out: residual kinase activity ATR/ATRIP(h)
T3 construct: purchased Eurofins KinaseProfiler
Summary of the method: as §2

cKit(D816H)(h) = target: T4, cKit(D816H)(h) (Homo sapiens, UniProt P10721, D816H); experiment: Eurofins kinase profiling; format: biochemical; conditions: read-out: residual kinase activity cKit(D816H)(h)
T4 construct: purchased Eurofins KinaseProfiler
Summary of the method: as §2

CK1γ2(h) = target: T5, CK1γ2(h) (Homo sapiens, UniProt P78368); experiment: Eurofins kinase profiling; format: biochemical; conditions: read-out: residual kinase activity CK1γ2(h)
T5 construct: purchased Eurofins KinaseProfiler
Summary of the method: as §2

IR(h) = target: T6, IR(h) (Homo sapiens, UniProt P06213); experiment: Eurofins kinase profiling; format: biochemical; conditions: read-out: residual kinase activity IR(h)
T6 construct: purchased Eurofins KinaseProfiler
Summary of the method: as §2

DCAMKL3(h) = target: T7, DCAMKL3(h) (Homo sapiens, UniProt Q9C098); experiment: Eurofins kinase profiling; format: biochemical; conditions: read-out: residual kinase activity DCAMKL3(h)
T7 construct: purchased Eurofins KinaseProfiler
T7 sequence (Q9C098 1-648): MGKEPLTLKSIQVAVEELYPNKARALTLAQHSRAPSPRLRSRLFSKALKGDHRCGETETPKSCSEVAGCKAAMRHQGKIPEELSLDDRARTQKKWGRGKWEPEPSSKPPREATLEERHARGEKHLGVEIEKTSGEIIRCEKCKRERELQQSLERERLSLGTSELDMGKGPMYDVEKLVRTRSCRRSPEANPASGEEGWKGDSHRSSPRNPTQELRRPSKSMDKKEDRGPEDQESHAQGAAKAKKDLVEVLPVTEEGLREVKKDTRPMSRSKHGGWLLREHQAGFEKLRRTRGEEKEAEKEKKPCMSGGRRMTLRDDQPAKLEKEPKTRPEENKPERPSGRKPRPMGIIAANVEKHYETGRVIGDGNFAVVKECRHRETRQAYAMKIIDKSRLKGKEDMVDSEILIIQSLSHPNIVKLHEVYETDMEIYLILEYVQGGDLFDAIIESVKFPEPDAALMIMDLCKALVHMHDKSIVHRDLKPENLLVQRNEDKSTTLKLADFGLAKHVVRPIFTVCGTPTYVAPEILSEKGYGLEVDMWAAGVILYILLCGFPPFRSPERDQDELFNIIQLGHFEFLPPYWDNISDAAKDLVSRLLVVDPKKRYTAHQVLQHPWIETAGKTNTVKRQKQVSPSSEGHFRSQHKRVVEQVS
Summary of the method: as §2

Flt3(h) = target: T8, Flt3(h) (Homo sapiens, UniProt P36888); experiment: Eurofins kinase profiling; format: biochemical; conditions: read-out: residual kinase activity Flt3(h)
T8 construct: purchased Eurofins KinaseProfiler
T8 sequence (P36888 27-993): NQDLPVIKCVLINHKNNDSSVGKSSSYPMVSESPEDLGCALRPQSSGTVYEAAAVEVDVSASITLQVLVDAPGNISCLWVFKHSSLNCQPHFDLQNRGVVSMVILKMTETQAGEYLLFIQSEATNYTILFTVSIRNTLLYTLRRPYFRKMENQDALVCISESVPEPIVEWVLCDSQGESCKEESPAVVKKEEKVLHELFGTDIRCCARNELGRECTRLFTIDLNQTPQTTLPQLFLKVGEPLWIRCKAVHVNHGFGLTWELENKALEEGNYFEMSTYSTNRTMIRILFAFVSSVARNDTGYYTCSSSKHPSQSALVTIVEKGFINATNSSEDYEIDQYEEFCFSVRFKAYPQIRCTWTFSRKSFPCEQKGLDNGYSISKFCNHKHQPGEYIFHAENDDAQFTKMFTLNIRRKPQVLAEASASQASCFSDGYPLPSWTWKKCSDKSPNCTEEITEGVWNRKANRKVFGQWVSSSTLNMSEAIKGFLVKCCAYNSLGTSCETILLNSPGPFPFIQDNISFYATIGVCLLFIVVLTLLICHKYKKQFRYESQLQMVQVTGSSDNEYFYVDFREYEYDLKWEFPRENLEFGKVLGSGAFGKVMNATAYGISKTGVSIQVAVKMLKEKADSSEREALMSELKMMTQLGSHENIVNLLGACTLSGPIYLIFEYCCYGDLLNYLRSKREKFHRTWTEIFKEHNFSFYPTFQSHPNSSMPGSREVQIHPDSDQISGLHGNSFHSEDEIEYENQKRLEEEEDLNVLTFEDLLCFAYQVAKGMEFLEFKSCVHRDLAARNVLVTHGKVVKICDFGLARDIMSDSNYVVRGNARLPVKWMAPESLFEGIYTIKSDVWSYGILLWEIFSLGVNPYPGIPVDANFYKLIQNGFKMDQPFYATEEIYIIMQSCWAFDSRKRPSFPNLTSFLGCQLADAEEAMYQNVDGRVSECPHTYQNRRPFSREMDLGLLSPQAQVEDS
Summary of the method: as §2

Lck(h) = target: T9, Lck(h) (Homo sapiens, UniProt P06239); experiment: Eurofins kinase profiling; format: biochemical; conditions: read-out: residual kinase activity Lck(h)
T9 construct: purchased Eurofins KinaseProfiler
Summary of the method: as §2

EGFR(T790M)(h) = target: T10, EGFR(T790M)(h) (Homo sapiens, UniProt P00533, T790M); experiment: Eurofins kinase profiling; format: biochemical; conditions: read-out: residual kinase activity EGFR(T790M)(h)
T10 construct: purchased Eurofins KinaseProfiler
Summary of the method: as §2

T9 sequence (P06239 whole entry): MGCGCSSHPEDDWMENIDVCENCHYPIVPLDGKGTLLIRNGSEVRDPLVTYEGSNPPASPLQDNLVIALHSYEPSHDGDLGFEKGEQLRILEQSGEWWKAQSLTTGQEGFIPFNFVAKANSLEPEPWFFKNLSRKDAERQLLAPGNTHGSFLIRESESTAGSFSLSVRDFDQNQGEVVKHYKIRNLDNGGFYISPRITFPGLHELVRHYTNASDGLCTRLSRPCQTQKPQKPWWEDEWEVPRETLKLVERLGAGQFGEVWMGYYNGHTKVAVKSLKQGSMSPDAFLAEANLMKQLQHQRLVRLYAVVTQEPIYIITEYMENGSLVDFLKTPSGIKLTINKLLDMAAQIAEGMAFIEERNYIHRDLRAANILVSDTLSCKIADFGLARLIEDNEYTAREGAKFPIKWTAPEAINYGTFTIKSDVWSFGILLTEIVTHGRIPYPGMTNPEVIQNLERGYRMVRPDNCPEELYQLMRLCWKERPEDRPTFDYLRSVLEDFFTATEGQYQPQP
T3 sequence (Q13535 whole entry): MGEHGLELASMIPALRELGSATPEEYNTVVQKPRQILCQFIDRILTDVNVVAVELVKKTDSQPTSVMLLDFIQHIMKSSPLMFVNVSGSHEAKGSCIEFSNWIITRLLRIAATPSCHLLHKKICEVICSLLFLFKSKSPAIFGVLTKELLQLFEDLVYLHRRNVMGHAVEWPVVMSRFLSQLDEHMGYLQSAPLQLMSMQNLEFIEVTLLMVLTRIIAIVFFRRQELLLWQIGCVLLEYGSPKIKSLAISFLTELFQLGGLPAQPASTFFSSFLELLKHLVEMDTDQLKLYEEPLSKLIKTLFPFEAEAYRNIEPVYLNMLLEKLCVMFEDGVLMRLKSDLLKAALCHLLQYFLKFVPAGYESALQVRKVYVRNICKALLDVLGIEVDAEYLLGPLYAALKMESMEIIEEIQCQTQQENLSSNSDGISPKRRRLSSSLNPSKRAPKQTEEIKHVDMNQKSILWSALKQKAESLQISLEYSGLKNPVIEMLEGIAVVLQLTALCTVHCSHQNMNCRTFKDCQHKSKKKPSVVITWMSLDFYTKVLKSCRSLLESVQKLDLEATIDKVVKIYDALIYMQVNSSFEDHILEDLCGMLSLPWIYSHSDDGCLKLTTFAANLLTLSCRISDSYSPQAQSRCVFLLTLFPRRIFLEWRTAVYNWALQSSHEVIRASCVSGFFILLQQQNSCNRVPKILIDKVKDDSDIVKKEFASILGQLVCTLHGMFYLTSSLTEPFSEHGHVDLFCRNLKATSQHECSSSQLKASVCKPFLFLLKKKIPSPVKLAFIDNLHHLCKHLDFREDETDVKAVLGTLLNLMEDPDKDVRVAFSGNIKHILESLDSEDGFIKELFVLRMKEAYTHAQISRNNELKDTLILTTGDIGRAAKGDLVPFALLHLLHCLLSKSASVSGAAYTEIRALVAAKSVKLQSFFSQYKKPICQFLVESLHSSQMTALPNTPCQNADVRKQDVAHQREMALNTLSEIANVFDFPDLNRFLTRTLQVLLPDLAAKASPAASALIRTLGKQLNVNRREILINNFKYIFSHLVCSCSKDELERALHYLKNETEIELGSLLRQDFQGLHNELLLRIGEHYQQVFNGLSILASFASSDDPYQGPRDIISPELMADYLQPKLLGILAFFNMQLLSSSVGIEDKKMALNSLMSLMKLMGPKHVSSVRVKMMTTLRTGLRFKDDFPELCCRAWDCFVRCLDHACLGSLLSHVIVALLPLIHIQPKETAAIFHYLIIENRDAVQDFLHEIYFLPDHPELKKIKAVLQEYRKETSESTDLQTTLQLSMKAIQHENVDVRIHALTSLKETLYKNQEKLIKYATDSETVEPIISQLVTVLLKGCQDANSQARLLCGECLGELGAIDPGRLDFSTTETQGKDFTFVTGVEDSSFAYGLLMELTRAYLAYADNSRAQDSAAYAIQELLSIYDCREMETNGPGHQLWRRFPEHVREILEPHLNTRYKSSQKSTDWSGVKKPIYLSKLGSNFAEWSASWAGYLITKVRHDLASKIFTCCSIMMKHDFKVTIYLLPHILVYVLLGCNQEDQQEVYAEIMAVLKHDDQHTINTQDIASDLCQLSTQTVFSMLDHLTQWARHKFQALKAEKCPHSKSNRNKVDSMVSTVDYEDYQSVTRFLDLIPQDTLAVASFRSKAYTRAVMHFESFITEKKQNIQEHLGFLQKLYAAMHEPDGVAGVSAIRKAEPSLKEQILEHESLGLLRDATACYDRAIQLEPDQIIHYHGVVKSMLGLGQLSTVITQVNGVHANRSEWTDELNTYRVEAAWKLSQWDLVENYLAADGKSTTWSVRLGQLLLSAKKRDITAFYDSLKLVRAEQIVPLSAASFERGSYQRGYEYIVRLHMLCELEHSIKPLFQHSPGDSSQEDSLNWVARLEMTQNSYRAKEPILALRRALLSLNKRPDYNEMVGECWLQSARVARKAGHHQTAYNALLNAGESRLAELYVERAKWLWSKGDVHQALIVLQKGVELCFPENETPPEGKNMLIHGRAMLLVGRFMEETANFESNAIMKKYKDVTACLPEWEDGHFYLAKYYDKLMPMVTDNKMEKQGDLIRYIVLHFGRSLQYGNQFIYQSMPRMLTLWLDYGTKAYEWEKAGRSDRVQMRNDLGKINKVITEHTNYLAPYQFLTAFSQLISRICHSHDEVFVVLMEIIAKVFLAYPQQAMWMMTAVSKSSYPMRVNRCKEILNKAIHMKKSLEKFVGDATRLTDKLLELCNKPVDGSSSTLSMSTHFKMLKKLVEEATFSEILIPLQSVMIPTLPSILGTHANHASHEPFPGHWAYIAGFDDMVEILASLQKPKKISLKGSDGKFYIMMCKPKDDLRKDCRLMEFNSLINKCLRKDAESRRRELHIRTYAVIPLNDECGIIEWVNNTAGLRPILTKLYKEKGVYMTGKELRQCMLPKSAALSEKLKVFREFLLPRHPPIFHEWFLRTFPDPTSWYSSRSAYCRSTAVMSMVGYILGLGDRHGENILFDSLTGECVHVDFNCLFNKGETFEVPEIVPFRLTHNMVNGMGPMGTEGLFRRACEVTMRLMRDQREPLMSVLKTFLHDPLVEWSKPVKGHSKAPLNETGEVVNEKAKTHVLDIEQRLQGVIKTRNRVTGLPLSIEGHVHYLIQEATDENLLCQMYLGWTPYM
T3 sequence (Q8WXE1 whole entry partner): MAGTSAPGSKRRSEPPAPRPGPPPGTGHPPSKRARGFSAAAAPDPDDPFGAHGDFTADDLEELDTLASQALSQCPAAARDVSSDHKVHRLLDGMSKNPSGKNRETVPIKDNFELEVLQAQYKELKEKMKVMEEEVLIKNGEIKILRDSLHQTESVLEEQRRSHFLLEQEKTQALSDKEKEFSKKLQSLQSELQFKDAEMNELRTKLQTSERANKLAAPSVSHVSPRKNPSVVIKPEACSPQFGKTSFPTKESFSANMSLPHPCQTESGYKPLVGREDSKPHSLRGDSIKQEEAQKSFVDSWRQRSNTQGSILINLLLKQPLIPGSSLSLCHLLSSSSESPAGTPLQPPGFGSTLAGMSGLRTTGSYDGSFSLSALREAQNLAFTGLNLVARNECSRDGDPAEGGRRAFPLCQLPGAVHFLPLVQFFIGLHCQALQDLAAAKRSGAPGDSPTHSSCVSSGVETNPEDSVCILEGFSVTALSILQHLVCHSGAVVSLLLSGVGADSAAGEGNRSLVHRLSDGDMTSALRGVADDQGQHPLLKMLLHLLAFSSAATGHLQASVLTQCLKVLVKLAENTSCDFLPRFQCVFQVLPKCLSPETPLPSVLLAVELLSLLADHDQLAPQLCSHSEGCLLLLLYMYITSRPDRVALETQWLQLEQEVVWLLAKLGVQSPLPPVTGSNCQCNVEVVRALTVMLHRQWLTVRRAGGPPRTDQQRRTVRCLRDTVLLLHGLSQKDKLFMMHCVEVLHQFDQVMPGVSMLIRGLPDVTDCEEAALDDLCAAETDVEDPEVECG
T2 sequence (O43293 whole entry): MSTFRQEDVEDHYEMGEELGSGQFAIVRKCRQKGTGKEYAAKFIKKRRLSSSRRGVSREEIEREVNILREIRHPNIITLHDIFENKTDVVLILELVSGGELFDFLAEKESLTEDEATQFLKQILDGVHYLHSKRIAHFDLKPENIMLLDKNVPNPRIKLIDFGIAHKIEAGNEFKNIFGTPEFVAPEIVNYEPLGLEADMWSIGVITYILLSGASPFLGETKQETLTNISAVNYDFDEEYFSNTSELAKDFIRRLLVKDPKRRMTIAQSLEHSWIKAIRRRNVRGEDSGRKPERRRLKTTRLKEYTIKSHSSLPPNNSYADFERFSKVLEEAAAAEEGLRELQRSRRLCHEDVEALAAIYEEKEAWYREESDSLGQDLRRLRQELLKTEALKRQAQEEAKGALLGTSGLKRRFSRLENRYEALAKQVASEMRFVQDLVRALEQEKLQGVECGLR
T5 sequence (P78368 whole entry): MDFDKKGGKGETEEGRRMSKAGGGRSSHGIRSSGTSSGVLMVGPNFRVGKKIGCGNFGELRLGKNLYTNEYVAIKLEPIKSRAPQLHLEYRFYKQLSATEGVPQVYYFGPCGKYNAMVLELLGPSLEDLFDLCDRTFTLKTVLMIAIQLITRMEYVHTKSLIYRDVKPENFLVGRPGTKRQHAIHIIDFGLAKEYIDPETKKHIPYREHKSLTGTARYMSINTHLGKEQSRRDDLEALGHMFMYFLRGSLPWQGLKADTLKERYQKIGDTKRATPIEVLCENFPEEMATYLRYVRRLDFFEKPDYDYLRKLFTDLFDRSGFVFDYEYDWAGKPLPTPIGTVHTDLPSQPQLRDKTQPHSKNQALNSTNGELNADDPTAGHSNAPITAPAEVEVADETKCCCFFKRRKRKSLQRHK

Row | SMILES | IC50 (BT-20) [µM] | IC50 (Hs578T) [µM] | remaining activity at 1 µM (CDK2/cyclinA(h)) [%] | remaining activity at 1 µM (ZIPK(h)) [%] | remaining activity at 1 µM (ATR/ATRIP(h)) [%] | remaining activity at 1 µM (cKit(D816H)(h)) [%] | remaining activity at 1 µM (CK1γ2(h)) [%] | remaining activity at 1 µM (IR(h)) [%] | remaining activity at 1 µM (DCAMKL3(h)) [%] | remaining activity at 1 µM (Flt3(h)) [%] | remaining activity at 1 µM (Lck(h)) [%] | remaining activity at 1 µM (EGFR(T790M)(h)) [%]
1 | CNC(=O)c1ccc(Nc2ncc(C(F)(F)F)c(NCc3nccnc3N(C)S(C)(=O)=O)n2)cc1 [VS-6063, Defactinib] | > 10 | 4.49 | 28 | 97 | 92 | 94 | 64 | 62 | 42 | 6 | 30 | 82
2 | CONC(=O)c1ccccc1Nc1cc(Nc2cc(C)nn2C(C)C)ncc1Cl [GSK2256098] | > 10 | > 10 | 94 | 93 | 101 | 98 | 97 | 105 | 98 | 108 | 110 | 106
3 | CNC(=O)c1cccc(C)c1Nc1nc(Nc2ccc(N3CCN(C4C5CC6CC4CC(O)(C6)C5)CC3)cc2OC)ncc1C(F)(F)F (stereo not drawn) [SJP1602, 2-((2-((4-(4-((2s,5r)-5-hydroxyadamantan-2-yl)piperazin-1-yl)-2-methoxyphenyl)amino)-5-(trifluoromethyl)pyrimidin-4-yl)amino)-N,3-dimethylbenzamide] | 2.53 | > 10 | 85 | 100 | 97 | 124 | 101 | 103 | 98 | 77 | 63 | 119

Source: paper PMC10528299, “Targeting FAK/PYK2 with SJP1602 for Anti-Tumor Activity in Triple-Negative Breast Cancer” (Current Issues in Molecular Biology, 2023)
